Measurements as given in PMC5897336, “Phosphatase activity tunes two-component system sensor detection threshold” (Nature Communications, 2018).
pEC50: −log10 of the molar value.

System: ThsS
Conditions: read-out: K1/2; whole E. coli cells, M9 glycerol, 37 °C, agonist, added as Na2S2O3, 200 μM IPTG, 20 ng/mL aTc; wild type taken as the upper end of the printed range

pEC50: 3.72
Structure (SMILES): O=S(=O)(O)S [thiosulfate]
